Measured values reported in ChEMBL document CHEMBL1127771, “Structure-activity relationships in a series of monocyclic endothelin analogues” (Bioorg Med Chem Lett, 1994).
Where a SMILES comes first, the peptide text is derived from it. Bridges are numbered along the chain shown (N, C = ends). [ ]: non-standard residue; d: D form. Aoc = NCCCCCCCC(=O)O; Ava = NCCCCC(=O)O

Legend:
[1] = species: Rattus norvegicus; test: Inhibition of ET-1 induced accumulation of inositol phosphates (IP-3) in rat skin fibroblasts; assay type: functional
[2] = target: T1, Endothelin receptor type B (Rattus norvegicus, UniProt P21451); test: Binding affinity against endothelin receptor in rat cerebellar membrane (ET-B) from adult blue laurie rat; assay type: cell membranes, Cerebellum
T1 sequence (P21451 whole entry): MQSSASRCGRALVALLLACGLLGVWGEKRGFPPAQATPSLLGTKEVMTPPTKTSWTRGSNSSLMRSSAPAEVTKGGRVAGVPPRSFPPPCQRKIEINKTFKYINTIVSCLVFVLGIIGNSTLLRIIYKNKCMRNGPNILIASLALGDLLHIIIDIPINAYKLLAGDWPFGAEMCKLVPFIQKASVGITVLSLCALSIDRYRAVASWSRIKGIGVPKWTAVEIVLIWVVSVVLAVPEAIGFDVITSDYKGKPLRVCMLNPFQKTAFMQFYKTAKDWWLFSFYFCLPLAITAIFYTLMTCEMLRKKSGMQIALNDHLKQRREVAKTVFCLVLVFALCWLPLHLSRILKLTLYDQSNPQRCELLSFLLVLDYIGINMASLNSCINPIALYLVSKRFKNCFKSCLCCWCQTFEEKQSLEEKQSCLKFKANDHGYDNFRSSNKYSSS

[3] = target: T2, Endothelin-1 receptor (Rattus norvegicus, UniProt P26684); test: In vitro binding affinity against Endothelin A receptor by using endothelin (ET-1) as radioligand in rat heart ventricle
T2 sequence (P26684 whole entry): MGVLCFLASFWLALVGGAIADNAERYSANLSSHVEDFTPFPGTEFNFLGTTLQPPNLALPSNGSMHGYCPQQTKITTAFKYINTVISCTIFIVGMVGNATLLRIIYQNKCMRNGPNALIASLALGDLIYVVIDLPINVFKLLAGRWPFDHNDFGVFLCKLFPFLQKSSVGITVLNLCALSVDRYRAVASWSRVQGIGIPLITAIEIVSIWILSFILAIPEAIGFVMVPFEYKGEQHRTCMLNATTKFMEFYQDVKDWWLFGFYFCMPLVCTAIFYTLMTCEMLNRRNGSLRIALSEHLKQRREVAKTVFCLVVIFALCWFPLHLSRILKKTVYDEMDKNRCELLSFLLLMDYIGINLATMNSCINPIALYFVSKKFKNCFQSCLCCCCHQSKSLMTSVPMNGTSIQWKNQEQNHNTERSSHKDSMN

[4] = target: T1, Endothelin receptor type B; test: Binding affinity against Endothelin B receptor in rat cerebellar membrane (ET-B) from adult blue laurie rat; assay type: cell membranes, Cerebellum

| SMILES | IC50 [1] | IC50 [2] | IC50 [3] | IC50 [4] |
| --- | --- | --- | --- | --- |
| CC[C@H](C)[C@H](NC(=O)[C@H](CC(=O)O)NC(=O)[C@H](CC(C)C)NC(=O)[C@H](Cc1c[nH]cn1)NC(=O)[C@@H]1CSSC[C@H](N)C(=O)N[C@@H](CO)C(=O)N[C@@H](CC(=O)O)C(=O)N[C@@H](CCCCN)C(=O)N[C@@H](CCC(=O)O)C(=O)N[C@@H](C(C)C)C(=O)N[C@@H](Cc2ccc(O)cc2)C(=O)N[C@@H](Cc2ccccc2)C(=O)N1)C(=O)N[C@H](C(=O)N[C@@H](Cc1c[nH]c2ccccc12)C(=O)O)[C@@H](C)CC (H-CSDKEVYFCHLDIIW-OH; disulfide 1-9) [listing 1 of 2 here] | > 10000 nM |  |  |  |
| CC[C@H](C)[C@H](NC(=O)[C@H](CC(=O)O)NC(=O)[C@H](CC(C)C)NC(=O)[C@H](Cc1c[nH]cn1)NC(=O)[C@@H]1CSSC[C@H](N)C(=O)N[C@@H](CO)C(=O)NCCCCC(=O)N[C@@H](C(C)C)C(=O)N[C@@H](Cc2ccc(O)cc2)C(=O)N[C@@H](Cc2ccccc2)C(=O)N1)C(=O)N[C@H](C(=O)N[C@@H](Cc1c[nH]c2ccccc12)C(=O)O)[C@@H](C)CC (H-CS[Ava]VYFCHLDIIW-OH; disulfide 1-7) | > 10000 nM | 350 nM | 1800 nM |  |
| CC[C@H](C)[C@H](NC(=O)[C@H](CC(=O)O)NC(=O)[C@H](CC(C)C)NC(=O)[C@H](Cc1c[nH]cn1)NC(=O)[C@@H]1CSSC[C@H](N)C(=O)N[C@@H](CO)C(=O)N[C@@H](CO)C(=O)N[C@@H](CO)C(=O)N[C@@H](C(C)C)C(=O)N[C@@H](Cc2ccc(O)cc2)C(=O)N[C@@H](Cc2ccccc2)C(=O)N1)C(=O)N[C@H](C(=O)N[C@@H](Cc1c[nH]c2ccccc12)C(=O)O)[C@@H](C)CC (H-CSSSVYFCHLDIIW-OH; disulfide 1-8) | 5000 nM |  | 1200 nM | 60 nM |
| CC[C@H](C)[C@H](NC(=O)[C@H](CC(=O)O)NC(=O)[C@H](CC(C)C)NC(=O)[C@H](Cc1cnc[nH]1)NC(=O)[C@@H]1CSSC[C@H](N)C(=O)N[C@@H](CO)C(=O)NCCCCCCCC(=O)N[C@@H](C(C)C)C(=O)N[C@@H](Cc2ccc(O)cc2)C(=O)N[C@@H](Cc2ccccc2)C(=O)N1)C(=O)N[C@H](C(=O)N[C@@H](Cc1c[nH]c2ccccc12)C(=O)O)[C@@H](C)CC (H-CS[Aoc]VYFCHLDIIW-OH; disulfide 1-7) |  |  | 1600 nM | 240 nM |
| CC[C@H](C)[C@H](NC(=O)[C@H](CC(=O)O)NC(=O)[C@H](CC(C)C)NC(=O)[C@H](Cc1cnc[nH]1)NC(=O)[C@@H]1CSSC[C@H](N)C(=O)N[C@@H](CO)C(=O)N[C@@H](CO)C(=O)N[C@@H](CC(C)C)C(=O)N[C@@H](CCSC)C(=O)N[C@@H](CC(=O)O)C(=O)N[C@@H](CCCCN)C(=O)N[C@@H](CCC(=O)O)C(=O)N1)C(=O)N[C@H](C(=O)N[C@@H](Cc1c[nH]c2ccccc12)C(=O)O)[C@@H](C)CC (H-CSSLMDKECHLDIIW-OH; disulfide 1-9) |  | > 10000 nM | 49000 nM |  |
| CC[C@H](C)[C@H](NC(=O)[C@H](CC(=O)O)NC(=O)[C@H](CC(C)C)NC(=O)[C@H](Cc1c[nH]cn1)NC(=O)[C@@H]1CSSC[C@H](N)C(=O)N[C@@H](C(C)C)C(=O)N[C@@H](Cc2ccc(O)cc2)C(=O)N[C@@H](Cc2ccccc2)C(=O)N1)C(=O)N[C@H](C(=O)N[C@@H](Cc1c[nH]c2ccccc12)C(=O)O)[C@@H](C)CC (H-CVYFCHLDIIW-OH; disulfide 1-5) | 2200 nM |  | 6500 nM | 1700 nM |
| CC[C@H](C)[C@H](NC(=O)[C@H](CC(=O)O)NC(=O)[C@H](CC(C)C)NC(=O)[C@H](Cc1c[nH]cn1)NC(=O)[C@@H]1CSSC[C@H](N)C(=O)N[C@@H](CO)C(=O)NCCCCCCC(=O)N[C@@H](C(C)C)C(=O)N[C@@H](Cc2ccc(O)cc2)C(=O)N[C@@H](Cc2ccccc2)C(=O)N1)C(=O)N[C@H](C(=O)N[C@@H](Cc1c[nH]c2ccccc12)C(=O)O)[C@@H](C)CC [listing 1 of 2 here] | 8000 nM |  |  |  |
| CC[C@H](C)[C@H](NC(=O)[C@H](CC(=O)O)NC(=O)[C@H](CC(C)C)NC(=O)[C@H](Cc1c[nH]cn1)NC(=O)[C@@H]1CSSC[C@H](N)C(=O)N[C@@H](CO)C(=O)NCCCCCCCC(=O)N[C@@H](C(C)C)C(=O)N[C@@H](Cc2ccc(O)cc2)C(=O)N[C@@H](Cc2ccccc2)C(=O)N1)C(=O)N[C@H](C(=O)N[C@@H](Cc1c[nH]c2ccccc12)C(=O)O)[C@@H](C)CC (H-CS[Aoc]VYFCHLDIIW-OH; disulfide 1-7) | 3000 nM |  |  |  |
| CC[C@H](C)[C@H](NC(=O)[C@H](CC(=O)O)NC(=O)[C@H](CC(C)C)NC(=O)[C@H](Cc1c[nH]cn1)NC(=O)[C@@H]1CSSC[C@H](N)C(=O)N[C@@H](CO)C(=O)NCCCCCCC(=O)N[C@@H](C(C)C)C(=O)N[C@@H](Cc2ccc(O)cc2)C(=O)N[C@@H](Cc2ccccc2)C(=O)N1)C(=O)N[C@H](C(=O)N[C@@H](Cc1c[nH]c2ccccc12)C(=O)O)[C@@H](C)CC [listing 2 of 2 here] |  |  | 2500 nM |  |
| CC[C@H](C)[C@H](NC(=O)[C@H](CC(=O)O)NC(=O)[C@H](CC(C)C)NC(=O)[C@H](Cc1c[nH]cn1)NC(=O)[C@@H]1CSSC[C@H](N)C(=O)N[C@@H](CO)C(=O)N[C@@H](C(C)C)C(=O)N[C@@H](Cc2ccc(O)cc2)C(=O)N[C@@H](Cc2ccccc2)C(=O)N1)C(=O)N[C@H](C(=O)N[C@@H](Cc1c[nH]c2ccccc12)C(=O)O)[C@@H](C)CC (H-CSVYFCHLDIIW-OH; disulfide 1-6) |  |  | 2800 nM | 1700 nM |
| CC[C@H](C)[C@H](NC(=O)[C@H](CC(=O)O)NC(=O)[C@H](CC(C)C)NC(=O)[C@H](Cc1c[nH]cn1)NC(=O)[C@@H]1CSSC[C@H](N)C(=O)N[C@@H](CO)C(=O)N[C@@H](CC(=O)O)C(=O)N[C@@H](CCCCN)C(=O)N[C@@H](CCC(=O)O)C(=O)N[C@@H](C(C)C)C(=O)N[C@@H](Cc2ccc(O)cc2)C(=O)N[C@@H](Cc2ccccc2)C(=O)N1)C(=O)N[C@H](C(=O)N[C@@H](Cc1c[nH]c2ccccc12)C(=O)O)[C@@H](C)CC (H-CSDKEVYFCHLDIIW-OH; disulfide 1-9) [listing 2 of 2 here] |  |  | 3500 nM | 1100 nM |
| CC[C@H](C)[C@H](NC(=O)[C@H](CC(=O)O)NC(=O)[C@H](CC(C)C)NC(=O)[C@H](Cc1c[nH]cn1)NC(=O)[C@@H]1CSSC[C@H](N)C(=O)N[C@@H](CO)C(=O)N[C@@H](CO)C(=O)N[C@@H](C(C)C)C(=O)N[C@@H](Cc2ccc(O)cc2)C(=O)N[C@@H](Cc2ccccc2)C(=O)N1)C(=O)N[C@H](C(=O)N[C@@H](Cc1c[nH]c2ccccc12)C(=O)O)[C@@H](C)CC (H-CSSVYFCHLDIIW-OH; disulfide 1-7) |  |  | 1800 nM | 1400 nM |
